Data on ten compounds can be found in patent publication US8951963B2, “Active cores of peptide triazole HIV-1 entry inhibitors” (priority 2009, dated 2015).

“Also recorded” adds a separate entry of the source. Read-outs that look alike come from different tables or passages of the source. *1 amine or outer side, *2 acyl side, *3 side chain or, on linkers, in order; H or OH if unused. Where a SMILES comes first, the peptide text is derived from it. [ ]: non-standard residue; d: D form. X1 = O=C([C@@H]1C[C@H](n2cc([C]34[CH]5[CH]6[CH]7[CH]3[Fe]6754389%10[CH]4[CH]3[CH]8[CH]9[CH]4%10)nn2)CN1[*:1])[*:2]; Cit = NC(=O)NCCC[C@H](N)C(=O)O

The nature of data set [1]: In vitro cytotoxicity, MTT assay. It counts as cell-based. The following applies: human; P4-CCR5 cells, 2 hours, MTT. The protocol:
(§1) P4-CCR5 cells were seeded at a density of 4×10^4 cells/well in a 96 well plate approximately 18 hours prior to experiment. […] The cells were subsequently washed and assessed for viability using a 3-(4,5-dimethylthiazol-2-yl)-2,5-diphenyltetrazolium bromide (MTT) assay of viability (previously described in Krebs et al. (1999). Concentrations were tested in triplicate in two independent assays.
A general note: Tetrazolium assays rely on reduction of a dye to a coloured formazan, in cell work by metabolically active cells.

The subject of data set [2] is P4-CCR5 cells. The experiment in a line: In vitro cytotoxicity, MTT assay. The class given is cell-based. To be noted: concentrations as high as 0.1 mg/ml. The protocol: as §1
For data set [3], the system named is viruses pseudotyped with the VSV-G envelope. It counts as cell-based.
The target in data set [4] is T1, HIV-1 YU2 gp120 (Human immunodeficiency virus type 1 group M subtype B, UniProt P35961).
T1 construct: made in house; host or cells: Drosophila S2 cells
The class given is binding. To be noted: for dissociation rate constant (koff): Table 11, dissociation rate. The protocol:
Surface plasmon resonance (SPR) interaction analyses were performed on a Biacore® 3000 optical biosensor (GE). All experiments were carried out at 25° C. using standard PBS, pH 7.4, with 0.005% Surfactant P20.
Regeneration of the surface was achieved by a one 5-second pulse of 10 mM glycine, pH 1.5.
SPR data analyses were performed using BIAEvaluation 4.0 software (GE). […] Experimental data were fitted to a simple 1:1 binding model with a parameter included for mass transport. […] The inhibition curve was converted into a calibration curve by the use of a fitting function. The fitting was done using the 4-parameter equation in BIAevaluation software: […]

Data set [5] deals with T2, HIV-1YU-2 gp120 binding to mAb 17b (Human immunodeficiency virus type 1 group M subtype B, UniProt P35961).
T2 construct: made in house; host or cells: Drosophila S2 cells (gp120)
The following applies: Table 12; 100 nM gp120; NA = not active.
Source text: (§2) Where Rhigh is the response value at high inhibitor concentrations and Rlow is response at low inhibitor concentrations. Cone is the concentration of inhibitor, and A1 and A2 are fitting parameters. At IC50 the following is true:
(§3) Under this condition, A1=Conc and is therefore taken as the desired so parameter.

A further data set concerns the target T3, sCD4 (Homo sapiens, UniProt P01730).
T3 construct: soluble four domain CD4 (sCD4); made in house; host or cells: CHO cells
Nature of the data set: SPR control: direct binding of peptide to sCD4 surface. The following applies: SPR control experiment.

The subject of the next data set is Pseudotyped HIV-1BaL. The class given is cell-based. To be noted: Table 12; HOS.CD4.CCR5 cells, 48 hours; NA = not active; read-out: IC50 (antiviral).
In another data set the test system is mAb 17b. Nature of the data set: SPR control: direct binding of peptide to mAb 17b surface. To be noted: SPR control experiment.
The target of data set [6] is T4, HIV-1YU-2 gp120 binding to sCD4 (Human immunodeficiency virus type 1 group M subtype B, UniProt P35961).
T4 construct: made in house; host or cells: Drosophila S2 cells (gp120); CHO cells (sCD4)
The following applies: Table 12; 100 nM gp120; NA = not active.
Source text: as §2, §3

The target in another data set is T5, gp120 (Human immunodeficiency virus type 1 group M subtype B, UniProt P35961).
T5 construct: made in house; host or cells: Drosophila S2 cells
It counts as binding, HIV-1. The following applies: ITC, 25° C., PBS pH 7.4. As to the method: FIGS. 14A-14D are a series of graphs of calorimetric titration data of gp120 with various peptides. […] Data was obtained as 25° C. in PBS, pH 7.4. Experiments in FIGS. 14A and 14B were carried out using a VP-ITC, where 2 μM gp120 in the calorimetric cell (˜1.4 mL) was titrated with 10 μL aliquots of peptide at concentration of 30 μM.
Isothermal titration calorimetric experiments were performed using high-precision calorimetric systems of model VP-ITC or ITC20 from MicroCal Inc. The titrations were performed by stepwise addition of peptide to gp120 contained in the calorimetric cell at a constant temperature of 25° C. […] For the experiments carried out in the VP-ITC the concentration of gp120 was about 2 μM and the syringe contained the peptide at a concentration about 30 μM. For the experiment carried out using ITC20 gp120 was prepared at about 4 μM and the peptide at 50-100 μM. The solutions contained within the calorimetric cells and injector syringes were prepared in PBS, pH 7.4 and thoroughly degassed to avoid bubble formation in the calorimetric cell. The heat evolved upon each injection of the peptide solution was obtained from the integral of the calorimetric signal. The heat associated with binding of a ligand to the protein in the cell was obtained by subtracting the heat of dilution from the heat of reaction.

For data set [7], the target named is T1, HIV-1 YU2 gp120. Nature of the data set: biochemical. The class given is binding. To be noted: Kd (affinity) for HIV-1 YU2 gp120 as measured by SPR. (In general: In SPR one partner is held on a chip, and binding of the other changes the refractive index at the surface.)
Procedure: All surface plasmon resonance experiments (SPR) were performed on a BIA3000 optical biosensor (Biocore, Inc., Uppsala, Sweden). […] For direct binding experiments, YU2 gp120 was immobilized on the surface (˜4000 RU); peptide analytes in PBS buffer were passed over the surface at a flow rate of 50 μL/min, with 5 minute association phase and 5 minute dissociation phase. […] The indicated analytes were passed over the surfaces at a flow rate of 50 μL/minute, with 2.5 minute association phase and 2.5 minute dissociation phase.
Data analysis was performed using BIAEvaluation® 4.0 software (Biacore Inc., NJ). The responses of a buffer injection and responses from the control surface to which the mAb 2B6R was immobilized, were subtracted to account for nonspecific binding. Experimental data were fitted to a simple 1:1 Langmuir binding model with a parameter included for mass transport. The average kinetic parameters (association [ka] and dissociation [kd] rates) generated from a minimum of four datasets were used to define equilibrium association (KA) and dissociation constants (KD).
Data set [8] relates to HIV-1 strain BaL. The experiment in a line: Combination of HNG-156 and cyanovirin-N, HIV-1 BaL infection of P4-CCR5 cells. It counts as cell-based.
Data set [9] deals with P4-CCR5 cells. To be noted: at concentrations corresponding to IC50 values; Gopi et al., 2008; cited from earlier work.
The test system of data set [10] is HIV-1 strain BaL. To be noted: P4-CCR5 cells; Gopi et al., 2008; read-out: IC50, inhibition of infection by HIV-1 BaL; cited from earlier work.
The subject of data set [11] is HIV-1 strain BaL. Nature of the data set: Inhibition of HIV-1 infection, whole virus assay in P4-CCR5 cells. It counts as cell-based. To be noted: result of one trial.

The CC50 is the concentration at which the toxic effect on the cells reaches its halfway point. A high value points to better tolerance by the cells. Compound `CC[C@H](C)[C@H](NC(=O)[C@@H](N)CCCNC(=N)N)C(=O)N[C@@H](CC(N)=O)C(=O)N[C@@H](CC(N)=O)C(=O)N[C@H](C(=O)N1C[C@@H](n2cc([C]34[CH]5[CH]6[CH]7[CH]3[Fe]6754389%10[CH]4[CH]3[CH]8[CH]9[CH]4%10)nn2)C[C@H]1C(=O)N[C@@H](Cc1c[nH]c2ccccc12)C(=O)N[C@@H](CO)C(=O)N[C@@H](CCC(=O)O)C(=O)N[C@@H](C)C(=O)N[C@@H](CCSC)C(=O)N[C@@H](CCSC)C(N)=O)[C@@H](C)CC` (stereo partly shown) [HNG-156] showed a CC50 at 2 h in data set [1] above 59 µM. For the same compound, the “effect on P4-CCR5 cell viability” value with P4-CCR5 cells [2] is “no effect”.

As a reminder, the IC50 is the concentration that inhibits the measured activity by half. Regarding `CSCC[C@H](NC(=O)[C@H](CCSC)NC(=O)[C@H](C)NC(=O)[C@H](CCC(=O)O)NC(=O)[C@H](CO)NC(=O)[C@H](Cc1c[nH]c2ccccc12)NC(=O)[C@@H]1C[C@H](n2cc([C]34[CH]5[CH]6[CH]7[CH]3[Fe]6754389%10[CH]4[CH]3[CH]8[CH]9[CH]4%10)nn2)CN1)C(N)=O` (stereo partly shown) [UM10] (H-[X1]WSEAMM-NH2; N-terminus and C-terminus assumed), the “inhibition of negative control viruses pseudotyped with the VSV envelope” value in data set [3] is recorded as “Neither of these conjugates inhibited”. In addition, the “dissociation rate constant (koff)” value at HIV-1 YU2 gp120 [4] was 8.90E−04 ± 1.2 1/S. On HIV-1 YU2 gp120 [4] (lower affinity), the “affinity relative to 12 mer peptide of HNG-156” value amounted to 100 fold. In addition, in data set [5], the “mAb 17b (IC50)” value is reported as “unable to inhibit”. For the same compound, the “direct binding to sCD4” value at sCD4 is reported as “neither UM10 nor UM12 exhibited direct binding”. The IC50 in the data set with Pseudotyped HIV-1BaL was found to be 35 ± 15 µM. For the same compound, in the data set on mAb 17b, the “direct binding to 17b” value is “neither UM10 nor UM12 exhibited direct binding”. Besides, the “sCD4 (IC50)” value in [6] is reported as “unable to inhibit; also recorded: no IC50 value could be calculated”.

For `CC[C@H](C)[C@H](NC(=O)[C@@H](N)CCCNC(=N)N)C(=O)N[C@@H](CC(N)=O)C(=O)N[C@@H](CC(N)=O)C(=O)N[C@H](C(=O)N1C[C@@H](n2cc([C]34[CH]5[CH]6[CH]7[CH]3[Fe]6754389%10[CH]4[CH]3[CH]8[CH]9[CH]4%10)nn2)C[C@H]1C(=O)N[C@@H](Cc1c[nH]c2ccccc12)C(N)=O)[C@@H](C)CC` (stereo partly shown) [UM12] (H-RINNI[X1]W-NH2; N-terminus and C-terminus assumed), the “inhibition of negative control viruses pseudotyped with the VSV envelope” value in data set [3] was “Neither of these conjugates inhibited”. Also, the “dissociation rate constant (koff)” value on HIV-1 YU2 gp120 [4] is 1.8E−03 ± 1.3 1/S. At sCD4, the “direct binding to sCD4” value is given as “neither UM10 nor UM12 exhibited direct binding”. Further, the IC50 in the data set with Pseudotyped HIV-1BaL was determined as 6.8 ± 0.3 µM. In the data set with mAb 17b, the “direct binding to 17b” value is “neither UM10 nor UM12 exhibited direct binding”. Besides, on gp120, the ΔH was -19.7 kcal/mol and the “−TΔS” value was “+9.9 kcal/mol”.

On to `CC[C@H](C)[C@H](NC(=O)[C@@H](N)CCC(=O)O)C(=O)N[C@@H](CC(N)=O)C(=O)N[C@@H](CC(N)=O)C(=O)N[C@H](C(=O)N1C[C@@H](n2cc([C]34[CH]5[CH]6[CH]7[CH]3[Fe]6754389%10[CH]4[CH]3[CH]8[CH]9[CH]4%10)nn2)C[C@H]1C(=O)N[C@@H](Cc1c[nH]c2ccccc12)C(=O)N[C@@H](CO)C(N)=O)[C@@H](C)CC` (stereo partly shown) [UM13] (H-EINNI[X1]WS-NH2; N-terminus and C-terminus assumed), for which the “dissociation rate constant (koff)” value at HIV-1 YU2 gp120 [4] is reported as 3.1E−03 ± 2 1/S. Moreover, the IC50 with Pseudotyped HIV-1BaL was determined as 1.2 ± 0.3 µM.

Regarding `CC[C@H](C)[C@H](NC(=O)[C@H](CC(N)=O)NC(=O)[C@@H](N)CC(N)=O)C(=O)N1C[C@@H](n2cc([C]34[CH]5[CH]6[CH]7[CH]3[Fe]6754389%10[CH]4[CH]3[CH]8[CH]9[CH]4%10)nn2)C[C@H]1C(=O)N[C@@H](Cc1c[nH]c2ccccc12)C(N)=O` (stereo partly shown) [UM17] (H-NNI[X1]W-NH2), the “dissociation rate constant (koff)” value on HIV-1 YU2 gp120 [4] is 6.0E−03 ± 1.25 1/S. Moreover, in the data set on Pseudotyped HIV-1BaL, the IC50 stood at 33 ± 11 µM. At gp120, the ΔH was -13.2 kcal/mol and the “−TΔS” value was “+3.3 kcal/mol”.

The Kd is the constant that tells how readily two partners part at equilibrium. Lower therefore signals a tighter complex. `CC[C@H](C)[C@H](NC(=O)[C@H](CC(N)=O)NC(=O)[C@H](CC(N)=O)NC(=O)[C@@H](N)CCCNC(N)=O)C(=O)N1C[C@@H](n2cc([C]34[CH]5[CH]6[CH]7[CH]3[Fe]6754389%10[CH]4[CH]3[CH]8[CH]9[CH]4%10)nn2)C[C@H]1C(=O)N[C@@H](Cc1c[nH]c2ccccc12)C(=O)N[C@@H](CO)C(N)=O` (stereo partly shown) [UM24] (H-[Cit]NNI[X1]WS-NH2; N-terminus and C-terminus assumed): at HIV-1 YU2 gp120 [4], the “dissociation rate constant (koff)” value is on record as 2.9E−03 ± 1.2 1/S. The compound also had a Kd on HIV-1 YU2 gp120 [7] of around 0.021 µM. In addition, at gp120, the ΔH is -16.7 kcal/mol and the “−TΔS” value is recorded as “+6.3 kcal/mol”.

On to RINNIPWSEAMM [HNG-113], for which the “synergy with CV-N” value in the data set on HIV-1 strain BaL [8] was “does not synergize”. Moreover, the “impact on cell viability” value in the data set with P4-CCR5 cells [9] is “no or minimal impact”. The IC50 in the data set with HIV-1 strain BaL [10] is 0.156 µM.

On to RINNIPWSEAMM [HNG-124], for which the “impact on cell viability” value in the data set with P4-CCR5 cells [9] is “no or minimal impact”. Besides, the IC50 in the data set on HIV-1 strain BaL [10] is 0.418 µM.

In the case of RINNIPWSEAMM [HNG-137], the “impact on cell viability” value in the data set with P4-CCR5 cells [9] was “no or minimal impact”. Besides, the IC50 in the data set with HIV-1 strain BaL [10] was 0.61 µM.

For dextran sulfate, in the data set with HIV-1 strain BaL [11], the IC50 came to 9.8 µM and the “IC50, inhibition of infection by HIV-1 BaL” value came to 4.9 µg/mL. Further, the “Viral infectivity inhibition IC50” value in the data set on HIV-1 strain BaL [8] (agent alone) is listed as 0.900 microgram/milliliter.
